The values that follow come from PubChem BioAssay (NCI).

What all share (experiment): DTP human tumour cell line panel, 48 h
Assay [1] concerns SF-539 CNS.
For assay [2], the system named is HCT-15 colon.
Assay [3] concerns SN12C renal.
Assay [4] concerns SR leukemia.
Assay [5] deals with SF-295 CNS.
Assay [6] relates to NCI-H460 lung.
Assay [7] relates to CCRF-CEM leukemia.
The test system of assay [8] is SF-268 CNS.
In assay [9] the test system is EKVX NSCLC.
Assay [10] concerns M14 melanoma.

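96-well plates; 48 h exposure; 5 concentrations. Endpoints by linear interpolation between flanking doses. Not reached: highest tested concentration assigned. GI50 is the concentration that inhibits growth by half. Definition used: TGI = concentration required for complete inhibition of growth.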

As usually defined, the GI50 is the concentration giving 50% growth inhibition. Broadly, the TGI is the concentration at which net growth stops.

Turning to `O=C(C1CCCCC1)[C@@H]1[C@]2(C(=O)NC3CCCCC32)[C@@H]2CCCN2[C@@]12C(=O)NC1CCC(Cl)CC12` (stereo partly drawn), the GI50 was 121 µM in assay [1]; 56.5 µM in [2]; 61.2 µM in assay [3]; 30.8 µM in assay [4]; 149 µM in [5]; 134 µM in [6]. For the same compound, the GI50 in [7] is 32.3 µM; in assay [8], 119 µM; in [9], 69.9 µM; in assay [10] it was 116 µM. The TGI in assay [1] was found to be 255 µM; in assay [2], 211 µM; in assay [3], 197 µM; in [4] it was 124 µM; in [5], 299 µM; in assay [6], 308 µM. Further, the TGI in [7] worked out at 137 µM; in [8], 288 µM; in assay [9] it was 217 µM; in assay [10], 253 µM.
Turning to `COc1ccc2cc(-c3ccoc(=O)c3-c3cc(OC)c(OC)c(OC)c3)ccc2c1`, the GI50 in [1] was 0.266 µM; in assay [2], 0.059 µM; in assay [3] it was 0.639 µM; in [4], 0.0301 µM; in assay [5], 0.045 µM; in [6], 0.0526 µM. Besides, the GI50 was 0.0842 µM in [7], 0.626 µM in assay [8], 0.566 µM in [9] and 0.0681 µM in assay [10]. Also, the TGI in assay [1] is greater than 100 µM; in [2] it was greater than 100 µM; in assay [3] it was greater than 100 µM; in [6], greater than 32 µM; in assay [7], greater than 100 µM; in [8] it was greater than 100 µM. Moreover, the TGI in assay [9] and in assay [10] was greater than 100 µM in each case.
In the case of `O=C1C=C(Br)c2c(-c3ccccc3)oc3cccc1c23`, the TGI in assay [1] is greater than 94.2 µM; in assay [2], greater than 87.1 µM; in [3] it was greater than 100 µM; in assay [4] it was greater than 30.8 µM; in [5], greater than 100 µM; in [6], greater than 100 µM. Moreover, the TGI was greater than 47.6 µM in assay [7], greater than 81.6 µM in assay [8], greater than 100 µM in assay [9] and 98.2 µM in [10].
For the compound `CCCCCCc1cc(C(=O)Nc2cccc(C(F)(F)F)c2)nc(N)n1`, the TGI in assay [1], in [2], in [3], in [4], in assay [5] and in assay [6] was greater than 100 µM in each case. In addition, the TGI in assay [7], in [8], in assay [9] and in assay [10] was greater than 100 µM in each case.
Take `COc1cccc(C=Nc2cc(C)ccn2)c1O.COc1cccc(C=Nc2cc(C)ccn2)c1O.[Cu]`: the GI50 is 17 µM in assay [1]; 11.9 µM in assay [2]; 19 µM in [3]; 18.6 µM in assay [4]; 18 µM in [5]; 18.3 µM in [6]. In addition, the GI50 is 6.01 µM in assay [7], 14.6 µM in [8], 25.4 µM in [9] and 12.7 µM in [10]. The TGI in [1] was 42.9 µM; in assay [2], 36 µM; in assay [3] it was 50.4 µM; in assay [4], greater than 100 µM; in assay [5], 46.1 µM; in [6] it was 44 µM. For the same compound, the TGI in [7] was found to be 32.1 µM; in assay [8], 42.2 µM; in [9], 71.5 µM; in assay [10] it was 39.1 µM.
Turning to `CC(=O)NC1=C(OS(=O)(=O)c2ccc(C)cc2)CN(C)C1=O`, the TGI in assay [1] was 5.84 µM; in [2] it was 13.2 µM; in assay [3], 16.4 µM; in assay [4], greater than 100 µM; in assay [5], 13.9 µM; in [6], 7.77 µM. Further, the TGI worked out at 4.28 µM in assay [7], 45 µM in assay [8], 14.2 µM in assay [9] and 20 µM in assay [10].
`c1ccc(SC(CCCCC(Sc2ccccc2)Sc2ccccc2)Sc2ccccc2)cc1`: the TGI in [1], in assay [2], in assay [3], in assay [4], in assay [5] and in [6] was greater than 100 µM each time. For the same compound, the TGI in [7], in [8], in assay [9] and in [10] was greater than 100 µM in each case.
In the case of `CCN1CCC(CCOC)(CN2c3ccccc3Sc3ccc(Cl)cc32)C1` (stereo not drawn), the GI50 was 1.76 µM in assay [1]; 2.04 µM in [2]; 12 µM in assay [3]; 4.01 µM in assay [4]; 1.73 µM in assay [5]; 1.9 µM in assay [6]. The GI50 in assay [7] was 3.57 µM; in assay [8] it was 2.73 µM; in [9], 2.04 µM; in [10], 1.92 µM. Besides, the TGI in assay [1] is 3.51 µM; in assay [2], 4.26 µM; in assay [3] it was 28.2 µM; in assay [4], greater than 100 µM; in assay [5], 3.39 µM; in assay [6], 3.58 µM. For the same compound, the TGI was greater than 100 µM in [7], 8.67 µM in [8], 5.91 µM in assay [9] and 3.62 µM in [10].
Turning to `O=C(c1ccccc1)C(CN1CCOCC1)c1ccccc1` (stereo not drawn), the GI50 in assay [1] is 2.11 µM; in [2] it was 0.641 µM; in [3], 1.73 µM; in assay [4] it was 1.02 µM; in assay [5], 2.67 µM; in [6], 2.51 µM. Besides, the GI50 in assay [7] was 0.283 µM; in assay [8] it was 1.65 µM; in assay [9], 3.32 µM; in assay [10], 1.66 µM. Besides, the TGI in assay [1] is 4.47 µM; in [2], 2.21 µM; in assay [3], 4.47 µM; in assay [4], 4.45 µM; in assay [5], 10.4 µM; in [6], 7.76 µM. The TGI was found to be 1.19 µM in assay [7], 3.47 µM in assay [8], 16.9 µM in assay [9] and 3.57 µM in assay [10].
As to `COc1cc2nc(N3CCCC3)nc(NCC3CCCCC3)c2cc1OC`, the GI50 is 0.817 µM in assay [1]; 0.505 µM in assay [2]; 1.48 µM in assay [3]; 0.254 µM in [4]; 1.38 µM in assay [5]; 1.75 µM in [6]. Also, the GI50 in assay [7] is 1.09 µM; in assay [8], 1.75 µM; in [9], 1.45 µM; in [10], 1.44 µM. In addition, the TGI in [1] came out at 2.15 µM; in [2], 1.8 µM; in assay [3], 2.91 µM; in assay [4], 1.08 µM; in assay [5], 2.71 µM; in assay [6] it was 3.35 µM. In addition, the TGI was 3.5 µM in assay [7], 3.45 µM in assay [8], 2.91 µM in assay [9] and 2.88 µM in assay [10].
With `CSCC1CC(c2ccc(Cl)cc2)=NO1` (stereo not drawn), the concentration for total growth inhibition (TGI) in assay [1], in assay [2], in assay [3], in assay [4], in assay [5] and in assay [6] was greater than 100 µM in each case. Besides, the TGI in [7], in [8], in assay [9] and in assay [10] was greater than 100 µM in each case.
Turning to `O=c1cc(-c2ccccc2)[nH]c2cc(O)ccc12`, the TGI was greater than 100 µM in assay [1]; 30.6 µM in [2]; 89.6 µM in assay [3]; 62.9 µM in [4]; greater than 100 µM in assay [5]; 33.3 µM in [6]. For the same compound, the TGI in [7] is 42.6 µM; in [8] it was greater than 100 µM; in assay [9], greater than 100 µM; in assay [10] it was 39 µM.
Consider `C=CC(=O)N(C)[C@H]1C[C@H]2OC(C)(C1OC)n1c3ccccc3c3c4c(c5c6ccccc6n2c5c31)C(=O)NC4` (stereo partly drawn), for which the GI50 in assay [1] was 0.083 µM; in assay [2] it was 0.099 µM; in assay [3], 0.0521 µM; in assay [4] it was 0.0983 µM; in [5], 0.0815 µM; in assay [6], 0.0876 µM. The GI50 in [7] was 0.0337 µM; in assay [8], 0.0599 µM; in [9], 0.085 µM; in assay [10], 0.115 µM. Besides, the TGI was determined as 0.379 µM in assay [1]; 0.644 µM in [2]; 0.931 µM in [3]; 0.776 µM in assay [4]; 0.827 µM in assay [5]; 1.01 µM in assay [6]. The TGI in assay [7] was 1.35 µM; in assay [8], 1.26 µM; in assay [9] it was greater than 50 µM; in assay [10], 1.74 µM.
As to `O=C(N/N=C/c1ccc2c(c1)CCC2)c1ccccc1O`, the TGI in assay [1] was 65.8 µM; in assay [2], 69.6 µM; in assay [3], 62.7 µM; in assay [4] it was greater than 100 µM; in [5] it was 36.6 µM; in assay [6], 63.2 µM. For the same compound, the TGI in assay [7] is greater than 100 µM; in assay [8] it was 74.7 µM; in assay [9] it was 92.2 µM; in assay [10], greater than 100 µM.
Regarding `Nc1ncnc2[nH]ncc12`, the GI50 is 4.17 µM in assay [1]; 0.281 µM in assay [2]; 1.3 µM in assay [3]; 0.445 µM in assay [4]; 0.401 µM in assay [5]; 2.1 µM in assay [6]. In addition, the GI50 in [7] is 3.57 µM; in assay [8] it was 4.19 µM; in [9], 2.6 µM; in [10] it was 0.442 µM. In addition, the TGI in assay [1] was greater than 100 µM; in assay [2] it was greater than 100 µM; in assay [3], greater than 100 µM; in assay [4] it was greater than 100 µM; in [5], 6.37 µM; in [6] it was greater than 100 µM. Besides, the TGI in assay [7] was greater than 100 µM; in assay [8], greater than 100 µM; in [9], greater than 79.9 µM; in assay [10] it was 12.4 µM.
For the compound `CC(C)(C)c1n[nH]c(=S)n(/N=C/c2ccc(F)c(Oc3ccccc3)c2)c1=O`, the GI50 in assay [1] is 43.7 µM; in [2], 37.7 µM; in [3] it was 48.5 µM; in assay [4], greater than 100 µM; in assay [5], 15.3 µM; in [6] it was 31 µM. Also, the GI50 is 32.7 µM in [7], 35.9 µM in assay [8], 41.6 µM in [9] and 42 µM in assay [10]. The TGI in assay [1], in [2], in assay [3], in assay [4], in assay [5] and in [6] was greater than 100 µM in each case. The TGI in [7], in assay [8], in [9] and in assay [10] was greater than 100 µM each time.
For the compound `C[C@]12CC[C@H]3[C@@H](CCC4=CC(=O)CC[C@@H]43)[C@@H]1CC[C@@H]2OC(=O)CCc1ccccc1`, the GI50 was 16.3 µM in [1]; 24.6 µM in assay [2]; 15.2 µM in assay [3]; 11.2 µM in [4]; 15.5 µM in [5]; 17.1 µM in assay [6]. The GI50 in assay [7] is 17.2 µM; in [8] it was 15.1 µM; in assay [9] it was 2.23 µM; in assay [10], 21.2 µM. Also, the TGI in [1] is 30.5 µM; in assay [2], greater than 89.7 µM; in assay [3] it was 29.7 µM; in [4], greater than 53.4 µM; in assay [5], 30.6 µM; in [6] it was 35.6 µM. Also, the TGI in [7] is 43.5 µM; in assay [8] it was 29.6 µM; in [9], 28.7 µM; in [10], 46.4 µM.
On to `CS(=O)(=O)Oc1cccc(/C=N/N=C(\N)NO)c1`, for which the TGI in [1], in assay [2], in [3], in assay [4], in assay [5] and in assay [6] was greater than 100 µM throughout. The TGI in [7], in [8], in [9] and in assay [10] was greater than 100 µM in each case.
Regarding `N#CC(C(=O)CCC(=O)Nc1cccc(Cl)c1)c1ccccc1` (stereo not drawn), the TGI in assay [1], in [2], in assay [3], in [4], in assay [5] and in assay [6] was greater than 100 µM throughout. Besides, the TGI in [7], in [8], in [9] and in assay [10] was greater than 100 µM throughout.
